Results published in patent US20250177582A1, “HIGH-AFFINITY LIGANDS OF FIBROBLAST ACTIVATION PROTEIN FOR TARGETED DELIVERY APPLICATIONS” (PHILOCHEM AG, priority 2022, published 2025).

What was measured:
human FAP = human FAP (Homo sapiens (Human), UniProt Q12884); assay: Inhibition assay of FAP (fluorogenic substrate Z-Gly-Pro-AMC); format: biochemical; settings: substrate Z-Gly-Pro-AMC 20 μM; FAP concentration lower than expected IC50 (66 pM in FIG. 3, 4); room temperature; read-out: IC50 vs human FAP
Protocol: (§1) Inhibition assay of FAP. The compounds were precisely weighed (range between […]) on a micro-scale (HuberLab, Sartorius QUINTIX35-1S) and dissolved in DMSO to prepare stock solutions at 1 mM. Stock solutions were further diluted with FAP activation buffer (50 mM Tris, 100 mM NaCl, 1 mM EDTA, pH=7.4) to a final DMSO concentration of 10% v/v. 10 μL of each inhibitor were serially diluted in a 384 well plate (grenier-bio one, PS, F-bottom, Black, non-binding) with 10 μL of 10% DMSO FAP buffer (1:1 dilution). FAP (human and murine) was diluted to the desired concentration with FAP activation buffer and added to the serial dilution of inhibitor (10 μL for each well). Each protein-inhibitor solution was incubated for 30 minutes at room temperature. Each measurement was performed with an enzyme concentration (FAP) lower than the expected IC50. A 60 μM solution of substrate (Z-Gly-Pro-AMC) in FAP activation buffer (<1% DMSO) was added to the plate (10 μL for each well). The reaction was incubated from 1 minute to 48 hours (see FIG. 2) at room temperature (22° C.-25° C.). The emission was read at 465 nm (excitation wavelength 360 nm) for 40 μs by Tecan Spark (s.n. 1808004082). The following controls were added to each row: positive control (no inhibitor control, 10 μL of 10% DMSO FAP buffer+10 μL of FAP solution+10 μL of substrate solution), negative control (no protein control, 10 μL of 10% DMSO FAP buffer+10 μL of FAP activation buffer+10 μL of substrate solution).
(§2) Normalization of values: The “% of FAP activity” can be calculated with the following formula:
The concentration of substrate (Z-Gly-Pro-AMC) was kept constant=20 μM. Dashed lines corresponds to sets of data with unstable fitting. […] Error bars display SEM.
(§3) FIG. 3: Inhibition assay performed with compounds 1, 2, 3, 4, 5, 6, 8 against a) 66 pM human FAP and b) 66 pM murine FAP. The concentration of substrate (Z-Gly-Pro-AMC) was kept constant=20 μM. The assay was incubated for 48 hours at 22.6° C. Error bars display SEM.
(§4) FIG. 4: a) Inhibition assay performed with compounds 8, 9 and 10 against 66 pM human FAP. The assay was incubated for 17 hours at 25° C. b) Inhibition assay performed with compound 9 against 66 pM murine FAP. The assay was incubated for 17 hours at 25° C. In both assays the concentration of substrate (Z-Gly-Pro-AMC) was kept constant=20 μM. Error bars display SEM.
FIG. 19. A: Chemical structures and corresponding IC50(hFAP) values of compounds according to the present invention. B: Chemical structures and corresponding IC50 values of compounds where the propargyl moiety at position AA^2 was replaced by different groups (Me, iPr, Bn) using both R and S stereoisomers. The sites of modification have been highlighted with arrows. Each measurement was performed with a FAP concentration lower than the expected IC50. Depending on FAP concentration, the fluorescence was measured between 10 minutes and 48 h (at room temperature) after the addition of the fluorogenic substrate (Z-Gly-Pro-AMC). IC50 values and standard errors were calculated using “[Inhibitor] vs. response—Variable slope (four parameters)” fitting (Graphpad Prism). […] By introducing the quinoline-based moiety, a single-digit nanomolar inhibitor was obtained. […] The replacement of propargylglycine with S-phenylalanine improved potency of the lead compound of additional ˜2-folds (compound 14).

murine FAP = murine FAP (Mus musculus (Mouse), UniProt P97321); assay: as above; format: biochemical; settings: substrate Z-Gly-Pro-AMC 20 μM; 66 pM murine FAP; room temperature
Protocol: as §1, §2, §3, §4

Serum stability = format: in vitro ADME; settings: mouse, in vitro, time points 0 to 48 h
Protocol: In two separate Eppendorf, 4 μL of compound 28 and 38 (1 mM solution in DMSO) and 36 μL of serum for each time point were mixed. After each specific time point, 40 μL of mixture were freezed in liquid nitrogen and then stored at −20° C. Once all the samples were collected, samples were defrosted at 24° C. and 300 μL of ACN were added. The samples were then centrifuged at 10′000 RPM for 5 minutes. 200 μL of the supernatant were transferred to a second Eppendorf tube and dried under vacuum for 2 h. The residue was carefully resuspended in 30 μL of mQ Water:acetonitrile=9:1 mixture (with 0.1% v/v of formic acid) and analysed by LC-MS. Each time point was performed in triplicate. The percentage of intact […] was determined extracting the area of the UV peak. The obtained values were normalized on the average area at time point corresponding to 0 hours.

Chain of murine FAP (P97321 whole entry): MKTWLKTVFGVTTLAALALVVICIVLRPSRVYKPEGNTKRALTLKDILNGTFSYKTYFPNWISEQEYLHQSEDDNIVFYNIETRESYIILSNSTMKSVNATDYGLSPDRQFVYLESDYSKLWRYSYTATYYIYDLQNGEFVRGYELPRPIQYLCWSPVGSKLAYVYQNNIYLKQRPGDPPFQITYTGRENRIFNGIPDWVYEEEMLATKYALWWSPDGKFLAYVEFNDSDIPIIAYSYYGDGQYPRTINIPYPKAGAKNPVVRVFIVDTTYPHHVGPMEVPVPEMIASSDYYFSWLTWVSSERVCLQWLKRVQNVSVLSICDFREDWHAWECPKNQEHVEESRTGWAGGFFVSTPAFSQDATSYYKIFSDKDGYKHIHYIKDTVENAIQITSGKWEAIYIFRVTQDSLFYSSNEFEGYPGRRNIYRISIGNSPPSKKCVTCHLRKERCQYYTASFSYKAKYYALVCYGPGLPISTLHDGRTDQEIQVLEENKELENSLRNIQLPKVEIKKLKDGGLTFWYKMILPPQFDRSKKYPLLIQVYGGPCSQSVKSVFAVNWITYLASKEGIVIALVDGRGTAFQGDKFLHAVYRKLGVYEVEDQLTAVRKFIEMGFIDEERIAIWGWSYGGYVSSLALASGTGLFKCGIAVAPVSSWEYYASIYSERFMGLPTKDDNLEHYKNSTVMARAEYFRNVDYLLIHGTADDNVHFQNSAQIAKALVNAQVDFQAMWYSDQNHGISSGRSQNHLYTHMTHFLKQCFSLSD
Chain of human FAP (Q12884 whole entry): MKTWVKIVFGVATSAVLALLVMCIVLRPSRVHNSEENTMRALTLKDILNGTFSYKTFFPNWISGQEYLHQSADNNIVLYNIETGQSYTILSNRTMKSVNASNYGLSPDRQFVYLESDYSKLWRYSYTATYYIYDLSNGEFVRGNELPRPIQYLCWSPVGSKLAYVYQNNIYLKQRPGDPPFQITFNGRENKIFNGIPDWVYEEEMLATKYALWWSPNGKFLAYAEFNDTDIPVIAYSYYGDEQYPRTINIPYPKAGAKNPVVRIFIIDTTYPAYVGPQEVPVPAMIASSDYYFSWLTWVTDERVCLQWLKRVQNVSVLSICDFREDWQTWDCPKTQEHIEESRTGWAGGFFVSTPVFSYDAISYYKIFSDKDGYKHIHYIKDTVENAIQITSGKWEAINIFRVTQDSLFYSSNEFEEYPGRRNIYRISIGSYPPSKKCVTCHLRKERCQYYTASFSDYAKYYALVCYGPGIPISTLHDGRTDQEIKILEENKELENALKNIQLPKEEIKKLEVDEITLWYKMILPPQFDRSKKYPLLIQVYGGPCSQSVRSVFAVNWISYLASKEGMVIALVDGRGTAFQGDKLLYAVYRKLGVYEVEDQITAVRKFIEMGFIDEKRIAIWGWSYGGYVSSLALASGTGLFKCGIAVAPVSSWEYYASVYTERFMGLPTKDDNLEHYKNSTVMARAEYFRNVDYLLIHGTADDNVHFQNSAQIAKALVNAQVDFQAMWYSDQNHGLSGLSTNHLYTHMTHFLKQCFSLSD

IC50 (human FAP): 0.03 nM
IC50 (murine FAP): 0.00479 nM
SMILES: CN(C)C(=N)NCCCC(NC(=O)CCC(=O)Nc1cccc2c(C(=O)NCC(=O)N3CC(F)(F)C[C@H]3C#N)ccnc12)C(=O)N[C@@H](Cc1ccccc1)C(=O)NCCNC(=O)CCC(C(=O)O)N1CCN(CC(=O)O)CCN(CC(=O)O)CCN(CC(=O)O)CC1 (stereo in doubt) [Compound 28]
half-life at 100 µM (Serum stability): > 48 h
